Data published in paper PMC5218480 (PLoS ONE, 2017).

Test system: MV-4-11 cells
Test: Gene expression microarray analysis (Affymetrix PrimeView) and GSEA
Format: cell-based, human
Set-up: RFU PODN (11730768_x_at) / Fold change /veh PODN (11730768_x_at) / RFU LINC00158 (11744669_a_at) / Fold change /veh LINC00158 (11744669_a_at) / RFU DUSP10 (11751237_a_at) / Fold change /veh DUSP10 (11751237_a_at) / RFU ID3 (11757404_x_at) / Fold change /veh ID3 (11757404_x_at) / RFU PLEKHG5 (11737974_s_at) / Fold change /veh PLEKHG5 (11737974_s_at) / RFU LRRC4B (11730491_at) / Fold change /veh LRRC4B (11730491_at) / RFU GIMAP4 (11747438_a_at) / Fold change /veh GIMAP4 (11747438_a_at) / RFU KRT8 (11758183_x_at) / Fold change /veh KRT8 (11758183_x_at) / RFU CNN1 (11734310_a_at) / Fold change /veh CNN1 (11734310_a_at) / RFU VPS37D (11726825_at) / Fold change /veh VPS37D (11726825_at) / RFU C10orf10 (11716522_x_at) / Fold change /veh C10orf10 (11716522_x_at) / RFU KIR2DL2 /// KIR2DL4 /// KIR2DL5A /// KIR2DL5B /// KIR2DS1 /// KIR2DS2 /// KIR2DS3 /// KIR2DS4 /// KIR3DL3 /// KIR3DL3 /// KIR3DS1 (11738374_at) / Fold change /veh KIR2DL2 /// KIR2DL4 /// KIR2DL5A /// KIR2DL5B /// KIR2DS1 /// KIR2DS2 /// KIR2DS3 /// KIR2DS4 /// KIR3DL3 /// KIR3DL3 /// KIR3DS1 (11738374_at) / RFU C1QL1 (11718748_at) / Fold change /veh C1QL1 (11718748_at) / RFU TMPRSS4 (11747572_a_at) / Fold change /veh TMPRSS4 (11747572_a_at) / RFU HAMP (11756126_x_at) / Fold change /veh HAMP (11756126_x_at) / RFU RNFT2 (11725882_a_at) / Fold change /veh RNFT2 (11725882_a_at) / RFU NR4A2 (11747474_a_at) / Fold change /veh NR4A2 (11747474_a_at) / RFU ABCC12 (11746883_a_at) / Fold change /veh ABCC12 (11746883_a_at) / RFU TMEM136 (11760407_x_at) / Fold change /veh TMEM136 (11760407_x_at) / RFU CLDN22 /// WWC2 (11732394_at) / Fold change /veh CLDN22 /// WWC2 (11732394_at) / RFU HLA-DPB1 (11760878_x_at) / Fold change /veh HLA-DPB1 (11760878_x_at) / RFU SPINT1 (11716480_a_at) / Fold change /veh SPINT1 (11716480_a_at) / RFU GAP43 (11754022_s_at) / Fold change /veh GAP43 (11754022_s_at) / RFU A4GNT (11735810_at) / Fold change /veh A4GNT (11735810_at) / RFU PRB3 (11715151_x_at) / Fold change /veh PRB3 (11715151_x_at) / RFU TUBB4B (11761932_at) / Fold change /veh TUBB4B (11761932_at) / RFU CAPN14 (11732068_a_at) / Fold change /veh CAPN14 (11732068_a_at) / RFU TMCC2 (11721928_a_at) / Fold change /veh TMCC2 (11721928_a_at) / RFU IRGQ (11745062_a_at) / Fold change /veh IRGQ (11745062_a_at) / RFU FAM174B (11720279_a_at) / Fold change /veh FAM174B (11720279_a_at) / RFU TMPRSS4 (11748680_a_at) / Fold change /veh TMPRSS4 (11748680_a_at) / RFU FAM212B (11763350_a_at) / Fold change /veh FAM212B (11763350_a_at) / RFU PLEKHG5 (11743358_a_at) / Fold change /veh PLEKHG5 (11743358_a_at) / RFU ZSCAN30 (11745921_a_at) / Fold change /veh ZSCAN30 (11745921_a_at) / RFU CMKLR1 (11741424_a_at) / Fold change /veh CMKLR1 (11741424_a_at) / RFU LOC101060620 /// MAPK8IP1 (11723275_at) / Fold change /veh LOC101060620 /// MAPK8IP1 (11723275_at) / RFU SPTSSB (11747773_x_at) / Fold change /veh SPTSSB (11747773_x_at) / RFU PRSS12 (11739890_at) / Fold change /veh PRSS12 (11739890_at) / RFU BIN1 (11741810_x_at) / Fold change /veh BIN1 (11741810_x_at) / RFU WNT11 (11732464_a_at) / Fold change /veh WNT11 (11732464_a_at) / RFU C10orf10 (11716521_a_at) / Fold change /veh C10orf10 (11716521_a_at) / RFU C5orf56 (11738089_at) / Fold change /veh C5orf56 (11738089_at) / RFU CYB561 (11721691_x_at) / Fold change /veh CYB561 (11721691_x_at) / RFU ANKRD19P (11752326_a_at) / Fold change /veh ANKRD19P (11752326_a_at) / RFU OR2T12 /// OR2T33 /// OR2T8 (11738714_s_at) / Fold change /veh OR2T12 /// OR2T33 /// OR2T8 (11738714_s_at) / RFU VCAN (11748164_a_at) / Fold change /veh VCAN (11748164_a_at) / RFU JSRP1 (11732532_at) / Fold change /veh JSRP1 (11732532_at) / RFU KRTAP10-11 (11738290_x_at) / Fold change /veh KRTAP10-11 (11738290_x_at) / RFU MYO3A (11730013_a_at) / Fold change /veh MYO3A (11730013_a_at) / RFU EBF3 (11725865_a_at) / Fold change /veh EBF3 (11725865_a_at) / RFU CAMK2N1 (11719241_x_at) / Fold change /veh CAMK2N1 (11719241_x_at) / RFU C5orf56 (11738088_a_at) / Fold change /veh C5orf56 (11738088_a_at) / RFU OLFML3 (11715873_a_at) / Fold change /veh OLFML3 (11715873_a_at) / RFU LOC100653217 /// NTM (11731650_a_at) / Fold change /veh LOC100653217 /// NTM (11731650_a_at) / RFU MAPK11 (11762145_a_at) / Fold change /veh MAPK11 (11762145_a_at) / RFU FIZ1 (11724087_x_at) / Fold change /veh FIZ1 (11724087_x_at) / RFU OASL (11726364_x_at) / Fold change /veh OASL (11726364_x_at) / RFU SOX15 (11748057_x_at) / Fold change /veh SOX15 (11748057_x_at) / RFU CD79A (11719716_a_at) / Fold change /veh CD79A (11719716_a_at) / RFU HIST1H1D (11736915_at) / Fold change /veh HIST1H1D (11736915_at) / RFU CASKIN2 (11723855_a_at) / Fold change /veh CASKIN2 (11723855_a_at) / RFU LOC730098 (11760151_x_at) / Fold change /veh LOC730098 (11760151_x_at) / RFU OR4N2 (11742367_at) / Fold change /veh OR4N2 (11742367_at) / RFU PRRT2 (11749266_a_at) / Fold change /veh PRRT2 (11749266_a_at) / RFU SNX32 (11753110_a_at) / Fold change /veh SNX32 (11753110_a_at) / RFU CDHR5 (11726645_a_at) / Fold change /veh CDHR5 (11726645_a_at) / RFU RCAN1 (11760418_a_at) / Fold change /veh RCAN1 (11760418_a_at) / RFU FAM167A (11723789_a_at) / Fold change /veh FAM167A (11723789_a_at) / RFU FAM26E (11764081_at) / Fold change /veh FAM26E (11764081_at) / RFU ISYNA1 (11749810_s_at) / Fold change /veh ISYNA1 (11749810_s_at) / RFU ACY1 (11761880_at) / Fold change /veh ACY1 (11761880_at) / RFU 11764098_at / Fold change /veh 11764098_at / RFU SAMD14 (11745864_x_at) / Fold change /veh SAMD14 (11745864_x_at) / RFU NPB (11741838_a_at) / Fold change /veh NPB (11741838_a_at) / RFU TMPRSS6 (11731388_a_at) / Fold change /veh TMPRSS6 (11731388_a_at) / RFU KRTAP10-2 (11738614_at) / Fold change /veh KRTAP10-2 (11738614_at) / RFU ARHGAP8 /// PRR5-ARHGAP8 (11727945_x_at) / Fold change /veh ARHGAP8 /// PRR5-ARHGAP8 (11727945_x_at) / RFU KRTAP5-7 /// NADSYN1 (11734609_at) / Fold change /veh KRTAP5-7 /// NADSYN1 (11734609_at) / RFU RASL12 (11751679_a_at) / Fold change /veh RASL12 (11751679_a_at) / RFU CDKN2B (11736163_a_at) / Fold change /veh CDKN2B (11736163_a_at) / RFU PRF1 (11729649_at) / Fold change /veh PRF1 (11729649_at) / RFU, ZNF638 /// ZNF638-IT1 / Fold change vs veh, ZNF638 /// ZNF638-IT1 / RFU, PANK3 / Fold change vs veh, PANK3 / RFU, SH3YL1 / Fold change vs veh, SH3YL1 / RFU, ZEB2 / Fold change vs veh, ZEB2 / RFU, NRIP1 / Fold change vs veh, NRIP1 / RFU, PTTG1IP / Fold change vs veh, PTTG1IP / RFU, CAPN2 / Fold change vs veh, CAPN2 / RFU, MED14 / Fold change vs veh, MED14 / RFU, SNORA58 / Fold change vs veh, SNORA58 / RFU, C1orf63 / Fold change vs veh, C1orf63 / RFU, LRRFIP1 / Fold change vs veh, LRRFIP1 / RFU, NDUFAF7 / Fold change vs veh, NDUFAF7 / RFU, SLC12A2 / Fold change vs veh, SLC12A2 / RFU, IBTK / Fold change vs veh, IBTK / RFU, ESF1 / Fold change vs veh, ESF1 / Fold change vs veh, TMEM50B / RFU, TAOK1 / Fold change vs veh, TAOK1 / RFU, ACBD3 / Fold change vs veh, ACBD3 / RFU, TMA16 / Fold change vs veh, TMA16 / RFU, RWDD3 / Fold change vs veh, RWDD3 / RFU, BCAT1 / Fold change vs veh, BCAT1 / RFU, EDEM3 / Fold change vs veh, EDEM3 / RFU, TMEM33 / Fold change vs veh, TMEM33 / RFU, WDR75 / Fold change vs veh, WDR75 / RFU, AHCTF1 / Fold change vs veh, AHCTF1 / RFU, TFRC / Fold change vs veh, TFRC / RFU, ZDHHC17 / Fold change vs veh, ZDHHC17 / RFU, NOM1 / Fold change vs veh, NOM1 / RFU, ARL8B / Fold change vs veh, ARL8B / RFU, ZBTB11 / Fold change vs veh, ZBTB11 / RFU, TAMM41 / Fold change vs veh, TAMM41 / RFU, KIAA1704 /// LOC100996395 / Fold change vs veh, KIAA1704 /// LOC100996395 / RFU, ING1 / Fold change vs veh, ING1 / RFU, TRMT61B / Fold change vs veh, TRMT61B / RFU, FUBP3 / Fold change vs veh, FUBP3 / RFU, TP53 / Fold change vs veh, TP53 / RFU, TNKS2 / Fold change vs veh, TNKS2 / RFU, ZFP14 / Fold change vs veh, ZFP14 / RFU, ACTR2 / Fold change vs veh, ACTR2 / RFU, PPP3R1 / Fold change vs veh, PPP3R1 / RFU, PIK3R1 / Fold change vs veh, PIK3R1 / RFU, HNRNPA1 / Fold change vs veh, HNRNPA1 / RFU, RNF170 / Fold change vs veh, RNF170 / RFU, ZNF28 / Fold change vs veh, ZNF28 / RFU, RNGTT / Fold change vs veh, RNGTT / RFU, OGT / Fold change vs veh, OGT / RFU, BRD1 / Fold change vs veh, BRD1 / RFU, MARS / Fold change vs veh, MARS / RFU, ZNF655 / Fold change vs veh, ZNF655 / RFU, FAHD1 / Fold change vs veh, FAHD1 / RFU, BDP1 / Fold change vs veh, BDP1 / RFU, LRRCC1 / Fold change vs veh, LRRCC1 / RFU, ARID1A / Fold change vs veh, ARID1A / RFU, ZNF146 / Fold change vs veh, ZNF146 / RFU, ZNF330 / Fold change vs veh, ZNF330 / RFU, GPN3 / Fold change vs veh, GPN3 / RFU, C9orf123 / Fold change vs veh, C9orf123 / RFU, N4BP2L2 / Fold change vs veh, N4BP2L2 / RFU, ARFIP1 / Fold change vs veh, ARFIP1 / RFU, FAM179B / Fold change vs veh, FAM179B / RFU, BCL10 / Fold change vs veh, BCL10 / RFU, UHRF1BP1L / Fold change vs veh, UHRF1BP1L / RFU, BET1 / Fold change vs veh, BET1 / RFU, CNOT2 / Fold change vs veh, CNOT2 / RFU, ZNF268 / Fold change vs veh, ZNF268 / Fold change vs veh, ZNF507 / RFU, DGCR2 / Fold change vs veh, DGCR2 / RFU, WDSUB1 / Fold change vs veh, WDSUB1 / Fold change vs veh, HSP90B1 /// MIR3652 / RFU, ADSS / Fold change vs veh, ADSS / RFU, GK / Fold change vs veh, GK / RFU, ZNF148 / Fold change vs veh, ZNF148 / RFU, TAF9 / Fold change vs veh, TAF9 / RFU, SLC1A5 / Fold change vs veh, SLC1A5 / RFU, SLMO2 / Fold change vs veh, SLMO2 / RFU, ABCC4 / Fold change vs veh, ABCC4 / RFU, LOC101060439 /// RAP1B / Fold change vs veh, LOC101060439 /// RAP1B / RFU, RFX7 / Fold change vs veh, RFX7 / RFU, GTPBP10 / Fold change vs veh, GTPBP10 / RFU, CNEP1R1 / Fold change vs veh, CNEP1R1 / RFU, BIVM-ERCC5 /// ERCC5 / Fold change vs veh, BIVM-ERCC5 /// ERCC5 / RFU, ILF3 / Fold change vs veh, ILF3 / RFU 11762660_at / Fold change /veh 11762660_at / RFU VCAN (11757783_s_at) / Fold change /veh VCAN (11757783_s_at) / RFU DDX43 (11728927_at) / Fold change /veh DDX43 (11728927_at) / RFU KRT8 (11758188_x_at) / Fold change /veh KRT8 (11758188_x_at) / RFU NKD1 (11759106_at) / Fold change /veh NKD1 (11759106_at) / RFU SRD5A1 (11742802_a_at) / Fold change /veh SRD5A1 (11742802_a_at) / RFU TPSAB1 /// TPSB2 (11721975_s_at) / Fold change /veh TPSAB1 /// TPSB2 (11721975_s_at) / RFU GSTM3 (11746129_a_at) / Fold change /veh GSTM3 (11746129_a_at) / RFU IL23R (11737362_x_at) / Fold change /veh IL23R (11737362_x_at) / RFU TMEM51 (11727254_a_at) / Fold change /veh TMEM51 (11727254_a_at) / RFU PIWIL2 (11732686_x_at) / Fold change /veh PIWIL2 (11732686_x_at) / RFU ORM1 (11744905_x_at) / Fold change /veh ORM1 (11744905_x_at) / RFU CCDC152 (11743942_at) / Fold change /veh CCDC152 (11743942_at) / RFU ECM1 (11717891_a_at) / Fold change /veh ECM1 (11717891_a_at) / RFU IL23R (11748794_a_at) / Fold change /veh IL23R (11748794_a_at) / RFU TNFAIP8L3 (11732012_x_at) / Fold change /veh TNFAIP8L3 (11732012_x_at) / RFU MBOAT4 (11741988_at) / Fold change /veh MBOAT4 (11741988_at) / RFU 11764193_at / Fold change /veh 11764193_at / RFU TMEM53 (11763286_at) / Fold change /veh TMEM53 (11763286_at) / RFU MAGEB2 (11727129_at) / Fold change /veh MAGEB2 (11727129_at) / RFU TMEM200A (11744735_a_at) / Fold change /veh TMEM200A (11744735_a_at) / RFU CCDC152 (11751479_a_at) / Fold change /veh CCDC152 (11751479_a_at) / RFU FAM211A (11726209_a_at) / Fold change /veh FAM211A (11726209_a_at) / RFU RGS16 (11746705_a_at) / Fold change /veh RGS16 (11746705_a_at) / RFU VCAN (11755009_s_at) / Fold change /veh VCAN (11755009_s_at) / RFU RHOB (11743442_s_at) / Fold change /veh RHOB (11743442_s_at) / RFU RGS16 (11720943_a_at) / Fold change /veh RGS16 (11720943_a_at) / RFU RGS16 (11720944_at) / Fold change /veh RGS16 (11720944_at) / RFU, VPS4B / Fold change vs veh, VPS4B / RFU, CREB1 / Fold change vs veh, CREB1 / RFU, DNAJC13 / Fold change vs veh, DNAJC13 / RFU, GNAQ / Fold change vs veh, GNAQ / RFU, CDK5R1 / Fold change vs veh, CDK5R1 / RFU, ZRANB3 / Fold change vs veh, ZRANB3 / RFU, CUL4A / Fold change vs veh, CUL4A / RFU, CCNY / Fold change vs veh, CCNY / RFU, UFL1 / Fold change vs veh, UFL1 / RFU, COG3 / Fold change vs veh, COG3 / RFU, DIAPH2 / Fold change vs veh, DIAPH2 / RFU, SKA2 / Fold change vs veh, SKA2 / RFU, AFF3 / Fold change vs veh, AFF3 / RFU, LMF1 / Fold change vs veh, LMF1 / RFU, IPO11 / Fold change vs veh, IPO11 / RFU, DFFB / Fold change vs veh, DFFB / RFU, FOXP1 / Fold change vs veh, FOXP1 / RFU, CARD8 / Fold change vs veh, CARD8 / RFU, STRN3 / Fold change vs veh, STRN3 / RFU, ADK / Fold change vs veh, ADK / RFU, RASSF2 / Fold change vs veh, RASSF2 / RFU, WIPF1 / Fold change vs veh, WIPF1 / RFU, LARP1B / Fold change vs veh, LARP1B / RFU, RASA1 / Fold change vs veh, RASA1 / RFU, RB1 / Fold change vs veh, RB1 / RFU, PPFIA1 / Fold change vs veh, PPFIA1 / RFU, MAT2A / Fold change vs veh, MAT2A / RFU, CCT5 / Fold change vs veh, CCT5 / RFU, WDR92 / Fold change vs veh, WDR92 / RFU, CUX1 / Fold change vs veh, CUX1 / RFU, TTC7A / Fold change vs veh, TTC7A / RFU, TMEM135 / Fold change vs veh, TMEM135 / RFU, DEPTOR / Fold change vs veh, DEPTOR / RFU, CPM / Fold change vs veh, CPM / RFU, DNAJB6 / Fold change vs veh, DNAJB6 / RFU, CACNA2D3 / Fold change vs veh, CACNA2D3 / RFU, DTX4 / Fold change vs veh, DTX4 / RFU, TFCP2 / Fold change vs veh, TFCP2 / RFU, GMCL1 /// GMCL1P1 / Fold change vs veh, GMCL1 /// GMCL1P1 / RFU, AEBP2 / Fold change vs veh, AEBP2 / RFU, SNHG1 /// SNORD22 /// SNORD25 /// SNORD26 /// SNORD27 /// SNORD28 /// SNORD29 /// SNORD31 / Fold change vs veh, SNHG1 /// SNORD22 /// SNORD25 /// SNORD26 /// SNORD27 /// SNORD28 /// SNORD29 /// SNORD31 / Fold change (Aza/veh), C12orf56 (ProbeSet 11735607_a_at) / Fold change (ACY-1035/veh), C12orf56 (ProbeSet 11735607_a_at) / Fold change (Aza/veh), FGFR1OP (ProbeSet 11751329_s_at) / Fold change (ACY-1035/veh), FGFR1OP (ProbeSet 11751329_s_at) / Fold change (Aza/veh), VPS36 (ProbeSet 11739960_a_at) / Fold change (ACY-1035/veh), VPS36 (ProbeSet 11739960_a_at) / RFU SYPL1 (11715823_x_at) / Fold change /veh SYPL1 (11715823_x_at) / RFU IGFBP7 (11715501_s_at) / Fold change /veh IGFBP7 (11715501_s_at) / RFU REEP3 (11722064_at) / Fold change /veh REEP3 (11722064_at) / RFU IGLL1 (11728026_x_at) / Fold change /veh IGLL1 (11728026_x_at): dose or concentration left out as unconfirmed
Settings: ProbeSet 11731461_x_at; LIST D

## Nc1ccc(-c2cccs2)cc1NC(=O)c1ccc2c(c1)cc(C1CC1)n2CCN1CCOCC1 [ACY-1035]
  Fold change vs veh, CPM: 0.83
